Assay results reported in US20250195498A1, “INHIBITOR OF CELLULAR PURINE NUCLEOTIDE SALVAGE PATHWAY ENZYME FOR USE IN THE TREATMENT AND/OR PREVENTION OF HELICOBACTER PYLORI INFECTION AND/OR DISEASE ASSOCIATED WITH SUCH INFECTION AND PHARMACEUTICAL COMPOSITION COMPRISING THE SAME” (UNIWERSYTET WARSZAWSKI, priority 2022, published 2025).
In brackets after ≈: the same amount, converted by molar mass. Several values for one entry are separate records, joined by “and”; a condition that tells them apart may be missing. Identical values can stand only once. Like-named read-outs stand apart in the source and are kept apart here.

Legend:
Type in all cases: cell-based, Helicobacter pylori
H. pylori strain N6 = assay: Growth curve method / MIC, strain N6; conditions: Helicobacter pylori
Experimental: (§1) The representative PNP inhibitor from H. pylori included in this study was immucillin A. The experiment was conducted using the growth curve method (two-fold serial dilutions in liquid medium). The tested H. pylori strains were cultured in Petri dishes with BHI solid medium supplemented with 10% FBS and 1% H. pylori Selective Supplement antibiotic kit, in anaerostats under microaerophilic conditions (5% 02, 10% CO2, 85% N2) at 37° C. for 3 days. Liquid culture of H. pylori was conducted overnight with shaking at 37° C. under microaerophilic conditions in BHI medium supplemented with 10% FBS and 1% H. pylori Selective Supplement antibiotic kit. Subsequently, for the essential experiment of determining the minimum inhibitory concentration (MIC), double strengthened liquid BHI medium was prepared, that is, supplemented with 20% FBS and a 2% set of H. pylori Selective Supplement antibiotics.
(§2) Bacterial proliferation inhibition experiments were carried out in 24-deep-well 2 ml flat-bottomed plates at a solution volume per well of 0.5 ml. In a single well, double strengthened (relative to the concentration planned for testing) solutions of the test inhibitor and double strengthened liquid BHI medium inoculated with H. pylori (10^4-10^5 CFU/ml in the final volume in the well, corresponding to the optical density of the culture OD600=0.05) were mixed together in a 1:1 ratio.
(§3) Kanamycin at a concentration of 25 μg/ml (Irie et al., 1997) was used as a positive control, while Mili-Q deionized water and BHI medium not inoculated with bacteria were used as negative controls. Plates were shaken at 37° C., under microaerophilic conditions. […] After 24 hours, the OD600 of samples containing the negative control, i.e. with Mili-Q deionized water, was about 1.2-1.4, corresponding to a bacterial concentration of about […].
(§4) In addition, the method proposed by Knezevic et al. (2018) was used to check whether the observed OD600 was from live bacterial cells. For this purpose, an equal volume of Christensen's double strength urea broth (that is, containing twice the concentration of all components) was added to the wells after incubation, and the plates were additionally incubated for 4 hours in an oxygen atmosphere at 37° C. During incubation, in wells with urease produced by live bacteria, urea is converted to ammonia and carbon dioxide, changing the pH of the solution and thus the colour of the phenol red indicator contained in the medium (from orange to purple).
(§5) All experiments were performed in triplicate.
Inhibition by PLP and its metabolic precursors of the growth of H. pylori strains: 26695, N6 and P12 in culture was investigated using the growth curve method as described in Example 3. From these experiments, the minimum inhibitory concentration was determined as the lowest concentration of a compound that inhibits the visible growth of the bacteria, compared to growth in control samples without the tested compounds. All experiments were carried out in triplicate.

H. pylori strain 26695 = assay: Growth curve method / MIC in liquid culture, strain 26695; conditions: Helicobacter pylori
Procedure, shortened: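 Two-fold serial dilutions in BHI liquid medium with 10% FBS and 1% H. pylori Selective Supplement, inoculated at 10^4-10^5 CFU/ml (OD600=0.05); shaken 24 h at 37° C. under microaerophilic conditions (5% O2, 10% CO2, 85% N2). MIC from OD600 growth; viability confirmed by 4 h urease/phenol red colour change; triplicate.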

[1] = system: H. pylori strain M26 (MTZ + CLR resistant); assay: Growth curve method / MIC, resistant strain M26; conditions: Helicobacter pylori, strain M26, MTZ + CLR resistant
Experimental: as §1, §2, §3, §4, §5
The antibacterial activity of two compounds, mefloquine (in the form of hydrochloride) and quinine, described in the literature as potent in vitro inhibitors of the PNP enzyme from Plasmodium falciparum (Dziekan et al., 2019), was tested. Using a two-fold serial dilution method in liquid medium (as described in Example 3), the MIC values for mefloquine and quinine were determined against clinical H. pylori strains resistant to MTZ, CLR and MTZ+CLR (M26, M91, M92 and M93), as well as the reference H. pylori strain 26695. Four clinical H. pylori strains isolated from adults, from primary infections (the subjects had never previously been treated against H. pylori infection) were tested. These strains come from the collection of the Department of Microbiology of the Medical University of Wroclaw and were obtained due to collaboration with Prof. Grażyna Gościniak, MD, PhD. The tested compounds belong to organic substances and are soluble in DMSO. The maximum tested concentration of quinine in H. pylori culture was 0.56 mM, and that of mefloquine was 2.25 mM. […] On each occasion, the effect of DMSO alone on the growth of the H. pylori strains tested was also checked. […] Kanamycin was used as a positive control and Mili-Q deionised water as a negative control. All experiments were carried out in triplicate. […]

[2] = strain N6, wild-type, read-out: MIC (Table 7)
[3] = strain 26695, wild-type, read-out: MIC (Table 7)

SMILES	MIC (H. pylori strain N6; [2])	MIC (H. pylori strain N6; strain N6, read-out: MIC)	MIC (H. pylori strain 26695; [3])	MIC (H. pylori strain 26695; strain 26695, read-out: MIC)	MIC ([1]; read-out: MIC)	MIC ([1]; read-out: MIC (Table 7))
Cc1ncc(CO)c(C=O)c1O.Cl [PI-h, pyridoxal hydrochloride]	2.5 µM	509 µg/mL and 2500 µM	2.5 µM	509 µg/mL and 2500 µM	255 µg/mL and 1250 µM	1.25 µM
Cc1ncc(COP(=O)(O)O)c(C=O)c1O [PLP, pyridoxal 5′-phosphate]	2.5 µM (≈ 0.618 µg/mL)	618 µg/mL and 2500 µM	2.5 µM (≈ 0.618 µg/mL)	618 µg/mL and 2500 µM	309 µg/mL and 1250 µM	1.25 µM
